Results as given in article doi:10.1101/2025.11.06.687025v1 (biorxiv, 2025).

Key:
[1] = molecular target: T1, mouse serotonin 5-HT2C receptor (Mus musculus, UniProt P34968); experiment: Fura-2 Ca2+ imaging, fraction of responsive HEK/5-HT2C cells, Hill fit; type: cell-based
T1 construct: gene Htr2c; recombinant receptor stably expressed in HEK293 (HEK/5-HT2C cells)
T1 sequence (P34968 33-459): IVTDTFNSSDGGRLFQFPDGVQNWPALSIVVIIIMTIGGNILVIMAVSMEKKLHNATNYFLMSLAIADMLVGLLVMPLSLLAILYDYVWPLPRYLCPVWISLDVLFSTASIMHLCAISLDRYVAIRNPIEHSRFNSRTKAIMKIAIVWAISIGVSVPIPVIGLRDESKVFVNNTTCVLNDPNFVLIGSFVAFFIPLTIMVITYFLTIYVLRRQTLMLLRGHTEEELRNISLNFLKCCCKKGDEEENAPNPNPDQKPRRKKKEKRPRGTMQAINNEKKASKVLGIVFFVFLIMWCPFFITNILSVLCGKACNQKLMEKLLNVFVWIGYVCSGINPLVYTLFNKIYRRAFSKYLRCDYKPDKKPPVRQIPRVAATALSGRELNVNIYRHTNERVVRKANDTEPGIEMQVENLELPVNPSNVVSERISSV

[2] = molecular target: T1, mouse serotonin 5-HT2C receptor; experiment: as above; type: cell-based; remark: listed apart in the source

IC50 [1] [nM]	EC50 [2] [nM]	SMILES
1200	–	O=c1cc(N2CCOCC2)oc2c(-c3ccccc3)cccc12 [LY294002]
–	2500	O=c1cc(N2CCNCC2)oc2c(-c3ccccc3)cccc12 [LY303511]
